From patent US8148531B2 (Chroma Therapeutics Ltd., priority 2005, dated 2012) come the findings set out here.

Structures are written as SMILES.

Common to all, as to format: cell-based
For experiment [1], the system named is U937 cell line. In words: Cell inhibition assay (SRB cell viability), U937. Particulars: Homo sapiens, U-937, IC50 range class, 72 h, read-out: Inhibitor Activity vs U937 cell line. As to the method: (§1) The corresponding cancer cell lines (U937, HCT 116 and HUT) growing in log phase were harvested and seeded at 1000 cells/well (200 ul final volume) into 96-well tissue culture plates. Following 24 h of cell growth cells were treated with compounds (final concentration of 20 uM). Plates were then re-incubated for a further 72 h before a sulphorhodamine B (SRB) cell viability assay was conducted according to Skehan 1990 J Natl Canc Inst 82, 1107-1112.
(§2) Data were expressed as a percentage inhibition of the control, measured in the absence of inhibitor, as follows: — % inhibition=100−((S^i/S^o)×100) where S^i is the signal in the presence of inhibitor and S^o is the signal in the presence of DMSO.
(§3) IC50 values were determined by non-linear regression analysis, after fitting the results of eight data points to the equation for sigmoidal dose response with variable slope (% activity against log concentration of compound), using Graphpad Prism software.

In experiment [2] the test system is HCT 116 cell line. Briefly: Cell inhibition assay (SRB cell viability), HCT 116. Particulars: Homo sapiens, IC50 range class, 72 h, read-out: Inhibitor Activity vs HCT 116 cell line. As to the method: as §1, §2, §3
The test system of experiment [3] is HUT cell line. Briefly: Cell inhibition assay (SRB cell viability), HUT. As to conditions: IC50 range class, 72 h, read-out: Inhibitor Activity vs HUT cell line. The protocol: as §1, §2, §3

With `COc1cc2c(Oc3ccc(NC(=O)c4ccccc4)cc3)ccnc2cc1OCC[C@H](N)C(=O)OCc1ccccc1` [Example 52, (S)-2-Amino-4-[4-(4-benzoylamino-phenoxy)-6-methoxy-quinolin-7-yloxy]-butyric acid benzyl ester], the IC50 in experiment [1], in experiment [2] and in experiment [3] was below 1000 nM each time.

`COc1cc2c(Oc3ccc(NC(=O)c4ccccc4F)cc3)ccnc2cc1OCC[C@H](N)C(=O)OC1CCCC1` [Example 61, (S)-2-Amino-4-{4-[4-(2-fluoro-benzoylamino)-phenoxy]-6-methoxy-quinolin-7-yloxy}-butyric acid cyclopentyl ester]: the IC50 in experiment [1], in experiment [2] and in experiment [3] was below 1000 nM each time.

Turning to `COc1cc2c(Oc3ccc(NC(=O)c4ccc(F)cc4)cc3)ccnc2cc1OCC[C@H](N)C(=O)OC1CCCC1` [Example 63, (S)-2-Amino-4-{4-[4-(4-fluoro-benzoylamino)-phenoxy]-6-methoxy-quinolin-7-yloxy}-butyric acid cyclopentyl ester], the IC50 in experiment [1], in experiment [2] and in experiment [3] was below 1000 nM in each case.

On to `COc1cc2c(Oc3ccc(NC(=O)c4ccc(F)cc4F)cc3)ccnc2cc1OCC[C@H](N)C(=O)OC1CCCC1` [Example 65, (S)-2-Amino-4-{4-[4-(2,4-difluoro-benzoylamino)-phenoxy]-6-methoxy-quinolin-7-yloxy}-butyric acid cyclopentyl ester], for which the IC50 in experiment [1], in experiment [2] and in experiment [3] was below 1000 nM throughout.

On to `COc1cc2c(Oc3ccc(NC(=O)c4ccc(Cl)cc4)cc3)ccnc2cc1OCC[C@H](N)C(=O)OC1CCCC1` [Example 66, (S)-2-Amino-4-{4-[4-(4-chloro-benzoylamino)-phenoxy]-6-methoxy-quinolin-7-yloxy}-butyric acid cyclopentyl ester], for which the IC50 in experiment [1], in experiment [2] and in experiment [3] was below 1000 nM each time.

For the compound `COc1cc2c(Oc3ccc(NC(=O)c4cc(C(F)(F)F)ccc4F)cc3)ccnc2cc1OCC[C@H](N)C(=O)OC1CCCC1` [Example 68, (S)-2-Amino-4-{4-[4-(2-fluoro-5-trifluoromethyl-benzoylamino)-phenoxy]-6-methoxy-quinolin-7-yloxy}-butyric acid cyclopentyl ester], the IC50 in experiment [1], in experiment [2] and in experiment [3] was below 1000 nM throughout.

For the compound `COc1cc2c(Oc3ccc(NC(=O)c4ccc(OC(F)(F)F)cc4)cc3)ccnc2cc1OCC[C@H](N)C(=O)OC1CCCC1` [Example 70, (S)-2-Amino-4-{6-methoxy-4-[4-(4-trifluoromethoxy-benzoylamino)-phenoxy]-quinolin-7-yloxy}-butyric acid cyclopentyl ester], the IC50 in experiment [1], in experiment [2] and in experiment [3] was below 1000 nM in each case.

Turning to `COc1cc2c(Oc3ccc(NC(=O)C4=C(C)c5ccccc5C4)cc3)ccnc2cc1OCC[C@H](N)C(=O)OC1CCCC1` [Example 72, (S)-2-Amino-4-(6-methoxy-4-{4-[(3-methyl-1H-indene-2-carbonyl)-amino]-phenoxy}-quinolin-7-yloxy)-butyric acid cyclopentyl ester], the IC50 in experiment [1], in experiment [2] and in experiment [3] was below 1000 nM each time.

In the case of `COc1cc2c(Oc3ccc(NS(=O)(=O)c4ccccc4)cc3)ccnc2cc1OCC[C@H](N)C(=O)OC1CCCC1` [Example 73, (S)-2-Amino-4-[4-(4-benzenesulfonylamino-phenoxy)-6-methoxy-quinolin-7-yloxy]-butyric acid cyclopentyl ester], the IC50 in experiment [1] was 1000 to 5000 nM; in experiment [2] it was above 5000 nM; in experiment [3], 1000 to 5000 nM.

Regarding `COc1cc2c(Oc3ccc(NC(=O)c4cccs4)cc3)ccnc2cc1OCC[C@H](N)C(=O)OC1CCCC1` [Example 75, (S)-2-Amino-4-(6-methoxy-4-{4-[(thiophene-2-carbonyl)-amino]-phenoxy}-quinolin-7-yloxy)-butyric acid cyclopentyl ester], the IC50 in experiment [1], in experiment [2] and in experiment [3] was below 1000 nM each time.

As to `COc1cc2c(Oc3ccc(CC(=O)Nc4ccc(C(F)(F)F)cc4)cc3)ccnc2cc1OCC[C@H](N)C(=O)OC1CCCC1` [Example 79, (S)-2-Amino-4-(6-methoxy-4-{4-[(4-trifluoromethyl-phenylcarbamoyl)-methyl]-phenoxy}-quinolin-7-yloxy)-butyric acid cyclopentyl ester], the IC50 in experiment [1], in experiment [2] and in experiment [3] was below 1000 nM in each case.

In the case of `COc1cc2c(Oc3ccc(CC(=O)Nc4ccccc4)cc3)ccnc2cc1OCC[C@H](N)C(=O)OC1CCCC1` [Example 80, (S)-2-Amino-4-[6-methoxy-4-(4-phenylcarbamoylmethyl-phenoxy)-quinolin-7-yloxy]-butyric acid cyclopentyl ester], the IC50 in experiment [1], in experiment [2] and in experiment [3] was below 1000 nM each time.

With `COc1cc2c(Oc3ccc(CC(=O)Nc4ccccc4F)cc3)ccnc2cc1OCC[C@H](N)C(=O)OC1CCCC1` [Example 82, (S)-2-Amino-4-(4-{4-[(2-fluoro-phenylcarbamoyl)-methyl]-phenoxy}-6-methoxy-quinolin-7-yloxy)-butyric acid cyclopentyl ester], the IC50 in experiment [1], in experiment [2] and in experiment [3] was below 1000 nM throughout.

With `COc1cc2c(Oc3ccc(CC(=O)Nc4cccc(F)c4)cc3)ccnc2cc1OCC[C@H](N)C(=O)OC1CCCC1` [Example 84, (S)-2-Amino-4-(4-{4-[(3-fluoro-phenylcarbamoyl)-methyl]-phenoxy}-6-methoxy-quinolin-7-yloxy)-butyric acid cyclopentyl ester], the IC50 in experiment [1], in experiment [2] and in experiment [3] was below 1000 nM throughout.

In the case of `COc1cc2c(Oc3ccc(CC(=O)Nc4ccc(F)cc4)cc3)ccnc2cc1OCC[C@H](N)C(=O)OC1CCCC1` [Example 86, (S)-2-Amino-4-(4-{4-[(4-fluoro-phenylcarbamoyl)-methyl]-phenoxy}-6-methoxy-quinolin-7-yloxy)-butyric acid cyclopentyl ester], the IC50 in experiment [1], in experiment [2] and in experiment [3] was below 1000 nM in each case.

For the compound `COc1cc2c(Oc3ccc(CC(=O)Nc4ccc(F)cc4F)cc3)ccnc2cc1OCC[C@H](N)C(=O)OC1CCCC1` [Example 88, (S)-2-Amino-4-(4-{4-[(2,4-difluoro-phenylcarbamoyl)-methyl]-phenoxy}-6-methoxy-quinolin-7-yloxy)-butyric acid cyclopentyl ester], the IC50 in experiment [1], in experiment [2] and in experiment [3] was below 1000 nM in each case.

As for `COc1ccc(NC(=O)Cc2ccc(Oc3ccnc4cc(OCC[C@H](N)C(=O)OC5CCCC5)c(OC)cc34)cc2)cc1` [Example 90, (S)-2-Amino-4-(6-methoxy-4-{4-[(4-methoxy-phenylcarbamoyl)-methyl]-phenoxy}-quinolin-7-yloxy)-butyric acid cyclopentyl ester], the IC50 in experiment [1], in experiment [2] and in experiment [3] was below 1000 nM throughout.

Regarding `COc1cc2c(Oc3ccc(-c4noc(-c5ccccc5)n4)cc3)ccnc2cc1OCC[C@H](N)C(=O)OC1CCCC1` [Example 92, (S)-2-Amino-4-{6-methoxy-4-[4-(5-phenyl-[1,2,4]oxadiazol-3-yl)-phenoxy]-quinolin-7-yloxy}-butyric acid cyclopentyl ester], the IC50 in experiment [1], in experiment [2] and in experiment [3] was above 5000 nM each time.

On to `COc1cc2c(Oc3ccc(NC(=O)Nc4ccc5c(c4)CCC5)cc3)ccnc2cc1OCC[C@H](N)C(=O)OC1CCCC1` [Example 97, (S)-2-Amino-4-{4-[4-(3-indan-5-yl-ureido)-phenoxy]-6-methoxy-quinolin-7-yloxy}-butyric acid cyclopentyl ester], for which the IC50 in experiment [1], in experiment [2] and in experiment [3] was below 1000 nM in each case.

As for `COc1cc2c(Oc3ccc(NC(=O)c4ccc(C(F)(F)F)cc4)cc3)ccnc2cc1OCC[C@@H](N)C(=O)OC1CCCC1` [Example 103, (R)-2-Amino-4-{6-methoxy-4-[4-(4-trifluoromethyl-benzoylamino)-phenoxy]-quinolin-7-yloxy}-butyric acid cyclopentyl ester], the IC50 in experiment [1], in experiment [2] and in experiment [3] was below 1000 nM throughout.

As to `COc1cc2c(Oc3ccc(NC(=O)Nc4ccc(C(F)(F)F)cc4)cc3)ccnc2cc1OCC[C@@H](N)C(=O)OC1CCCC1` [Example 104, (R)-2-Amino-4-(6-methoxy-4-{4-[3-(4-trifluoromethyl-phenyl)-ureido]-phenoxy}-quinolin-7-yloxy)-butyric acid cyclopentyl ester], the IC50 in experiment [1], in experiment [2] and in experiment [3] was below 1000 nM each time.

Regarding `COc1cc2c(Oc3ccc(NC(=O)c4ccc(C(F)(F)F)cc4)cc3F)ccnc2cc1OCC[C@@H](N)C(=O)OC1CCCC1` [Example 106, (R)-2-Amino-4-{4-[2-fluoro-4-(4-trifluoromethyl-benzoylamino)-phenoxy]-6-methoxy-quinolin-7-yloxy}-butyric acid cyclopentyl ester], the IC50 in experiment [1], in experiment [2] and in experiment [3] was below 1000 nM in each case.
